Data as given in US10434038B2, “Solid phosphonate salts as an add-on in endodontics” (smartodont GmbH, priority 2016, dated 2019).
Entries after “also recorded” stand apart in the source; their conditions may differ.

Key:
[1] = evolution of the pH-value of calcium hydroxide with Na4HEDP in distilled water (FIG. 4); assay type: physicochemical; conditions: 1 gram calcium hydroxide and 0.1 gram Na4HEDP in 10 milliliter distilled water, 10 minutes
Procedure: FIG. 4 depicts the evolution of the pH-value over time determined for the admixture of Na4HEDP and calcium hydroxide in solid form and only calcium hydroxide in solid form, respectively, into distilled water. The solutions are prepared by mixing 1 gram of calcium hydroxide in solid form and 0.1 gram of Na4HEDP in a glass vial. 10 milliliter of distilled water was added, and the pH measurement was started immediately and continued for 10 minutes. As a control, the pH value of 1 gram pure calcium hydroxide dissolved in 10 milliliter of distilled water was recorded, too. […] Consequently, the addition of Na4HEDP to calcium hydroxide can trigger an earlier onset of the desired disinfecting effect. In addition, the binding capacity of Na4HEDP to Ca^2+ makes it easier to remove the calcium hydroxide slurry from the root canal system before the canal is filled with an alloplastic material.

[2] = available chlorine over one hour in mixtures of a chelator and a sodium hypochlorite solution, titration with sodium thiosulfate (FIGS. 2 and 3); assay type: physicochemical; conditions: for loss of available hypochlorite anions: admixture into sodium hypochlorite solution
Text: To measure the amount of hypochlorite, it has to be transferred by acidification to chlorine, which oxidizes potassium iodide to iodine. The latter is then titrated with a sodium thiosulfate solution.
In particular, the chlorine reduction from a 9 weight percentage and 18 weight percentage of Na4HEDP with reference to the total weight of the sodium hypochlorite solution as well as the chlorine reduction from a 3 weight percentage and 18 weight percentage of Na4EDTA with reference to the total weight of the sodium hypochlorite solution, respectively, was monitored over one hour, which is the normal duration of an endodontic treatment. The Na4HEDP and the Na4EDTA were each dissolved in a sodium hypochlorite solution comprising 1 weight percentage of sodium hypochlorite with reference to the total weight of the sodium hypochlorite solution.
The amount of chlorine over time was compared with a control solution of 1 weight percentage of pure sodium hypochlorite. In order to determine the amount of the available chlorine, aliquots of each solution (approximately 0.5 grams) were removed after 1 minute, 10 minutes, 20 minutes, 30 minutes and 60 minutes and assessed for their amount of available chlorine using a titration apparatus. Thereby, a 0.1 molar sodium thiosulfate solution was used as titrator.
In FIG. 3, the same measurements are performed using the same amounts of Na4HEDP and Na4EDTA as in FIG. 2, whereby these chelators are each admixed into a NaOCl solution comprising 5 weight percentage of NaOCl.

[3] = 18 weight percentage chelator in 1 weight percentage NaOCl solution, after one hour
[4] = 18 weight percentage chelator in 1 weight percentage NaOCl solution, at the start

Compound	pH value of the slurry compared to calcium hydroxide alone [1]	relative amount of chlorine compared to pure NaOCl control ([2]; 9 weight percentage chelator in 1 weight percentage NaOCl solution, after one hour)	relative amount of chlorine compared to pure NaOCl control ([2]; 9 weight percentage chelator in 1 weight percentage NaOCl solution, at the start)	relative amount of chlorine compared to pure NaOCl control [2, 3]	relative amount of chlorine compared to pure NaOCl control [2, 4]	loss of available hypochlorite anions ([2]; over the course of one hour)	drop of the amount of chlorine ([2]; chelator in 5 weight percentage NaOCl solution, over the course of one hour)	relative amount of chlorine compared to pure NaOCl control ([2]; 3 weight percentage chelator in 1 weight percentage NaOCl solution, after one hour)	relative amount of chlorine compared to pure NaOCl control ([2]; 3 weight percentage chelator in 1 weight percentage NaOCl solution, at the start)	amount of chlorine ([2]; chelator in 5 weight percentage NaOCl solution, after one hour)
CC(O)(P(=O)([O-])[O-])P(=O)([O-])[O-].[Na+].[Na+].[Na+].[Na+] [Na4HEDP, tetrasodium (1-hydroxyethane)-1,1′-di-phosphonate]	higher pH value which increases faster	about 90 weight percentage	~100 percentage	about 75 weight percentage	~100 percentage	no significant loss; also recorded: does not cause any significant loss	less than 25 percentage			
O=C([O-])CN(CCN(CC(=O)[O-])CC(=O)[O-])CC(=O)[O-].[Na+].[Na+].[Na+].[Na+] [Na4EDTA, reference compound]				below 25 weight percentage	about 75 weight percentage	pronounced loss		below 25 weight percentage	about 95 weight percentage	zero
